According to patent US20240318225A1, “TECHNIQUES FOR ISOLATION OR ANALYSIS OF BACTERIAL PATHOGENS FROM PATIENT SAMPLES” (General Electric Company, priority 2021, published 2024):

System: E. coli clinical isolate
Experiment: microfluidic single cell antimicrobial susceptibility testing
Type: cell-based
Settings: 8 μg/ml ampicillin; during the duration of the experiment
Method: The microfluidic device for single cell antimicrobial susceptibility testing was fabricated by soft lithography. The microchannel master mold was fabricated by photolithography patterning and reactive-ion etching of a silicon wafer. Microchannel layers were then fabricated by PDMS molding on the master mold. PDMS pre-polymer and cross-linker were mixed at 10:1 ratio. The mixture was poured on the master mold and incubated for at least 3 hours at 65° C. The single cell antimicrobial susceptibility testing device was fabricated by bonding the PDMS layer with a glass slide. Inlet and outlet reservoirs were created by punching the PDMS layer with a biopsy puncher.
To perform the microfluidic single cell antimicrobial susceptibility testing experiment, ampicillin was added to the enriched samples with concentrations of 0 μg/mL, 2 μg/mL, 4 μg/mL, and 8 μg/mL. Each respective solution was loaded into a microfluidic device by capillary force. The devices were then mounted onto an epi-fluorescence microscope (Leica DMI 4000B, objective 20× or 40×) with a microscope heating stage. The presence of bacteria was examined, and the bacterial growth was monitored continuously.
The disclosed workflows may be used for antimicrobial susceptibility testing using a microfluidic device. […]

SMILES: CC1(C)S[C@@H]2[C@H](NC(=O)[C@H](N)c3ccccc3)C(=O)N2[C@H]1C(=O)O [ampicillin]
- effect on bacteria at higher concentration: some bacteria were lysed
